Where two headings read alike, the source gives them in different places.
Key:
[1] = test system: Peripheral Neuropathy in a Mouse Caused by Paclitaxel; assay type: in vivo, Balb/c mice; conditions: 6 mg/kg paclitaxel + 100 mg/kg orally daily from Day 6 (therapy); from Day 12 onwards
Excerpt: (§1) Six to seven-week-old female Balb/c mice were used for the tests. All the mice were acclimated for seven days after arrival. Then, the mice were grouped into the following four groups: a control group, a group receiving paclitaxel, a group receiving xylitol, and a group receiving paclitaxel and xylitol (a group receiving paclitaxel+xylitol). Each group consisted of five mice.
(§2) On Day 8 of acclimation, the mice in the group receiving paclitaxel and the group receiving paclitaxel+xylitol were intraperitoneally administered with paclitaxel at a dose of 6 mg/kg. This day was designated as Day 0 of administration. Thereafter, these mice were intraperitoneally administered with paclitaxel at a daily dose of 6 mg/kg on Day 7 and Day 14.
The mice in the group receiving xylitol and the group receiving paclitaxel+xylitol were orally administered with xylitol at a dose of 5 mg/kg daily from Day 0.
The mice in the four groups described in (4) of the present example (Example 1) were placed in a cage, and the avoidance response frequency (score) was measured by pressing a filament with a bending force of 0.16 g against the back of the hind paw.
as §1, with “tests as with Example 1.” for “tests.”, “mice. […]” for “mice.”
For the mice in the four groups described in (6) of the present example (Example 2), the avoidance response frequency (score) was measured by pressing a filament with a bending force of 0.16 g against the back of the hind paw. […]
The mice in the four groups described in (4) of the present example (Example 3) were placed in a cage, and the avoidance response frequency (score) was measured by pressing a filament with a bending force of 0.16 g against the back of the hind paw. […]

[2] = test system: Peripheral Neuropathy in a Mouse Caused by Bortezomib; assay type: in vivo, Balb/c mice
Excerpt: as §1, with “bortezomib,” for “paclitaxel,”, “bortezomib” for “paclitaxel”, “bortezomib+xylitol).” for “paclitaxel+xylitol).”
as §2, with “bortezomib” for “paclitaxel”, “bortezomib+xylitol” for “paclitaxel+xylitol”, “1” for “6”
The mice in the group receiving xylitol and the group receiving bortezomib+xylitol were orally administered with xylitol at a dose of 5 mg/kg daily from Day 0.
(§3) A cold plate test was performed to examine the effect of xylitol on paresthesia that is caused by a low temperature stimulus. The mice in the four groups described in (10) of the present example (Example 1) were placed on a cold plate set at 10° C., and withdrawal response time (latent time) was measured. It is presumed that a shorter latent time reflects a greater degree of shunning the low temperature stimulus by the cold plate.
as §1, with “tests as with Example 1.” for “tests.”, “bortezomib,” for “paclitaxel,”, “bortezomib” for “paclitaxel”, “bortezomib+xylitol).” for “paclitaxel+xylitol).”
On Day 8 of acclimation, the mice in the group receiving bortezomib and the group receiving bortezomib+xylitol were intraperitoneally administered with bortezomib at a dose of 1 mg/kg. This day was designated as the first day of the administration (Day 0). Thereafter, these mice were intraperitoneally administered with bortezomib at the same dose on Day 7 and Day 14 for a total of 3 doses.
The mice in the group receiving 100 mg/kg xylitol were orally administered with xylitol at a dose of 100 mg/kg daily from Day 0. The mice in the group receiving bortezomib+100 mg/kg xylitol were orally administered with xylitol at a dose of 100 mg/kg daily from Day 6 of administration.
as §3, with “A” for “A cold plate”, “performed on the mice in the four groups described in (12) of the present example (Example 2)” for “performed”, “respective” for “the four”, “groups” for “groups described in (10) of the present example (Example 1)”
as §1, with “tests as with Example 1.” for “tests.”, “bortezomib,” for “paclitaxel,”, “D-threitol,” for “xylitol,”, “bortezomib” for “paclitaxel”, “D-threitol” for “xylitol”, “bortezomib+D-threitol).” for “paclitaxel+xylitol).”
as §2, with “bortezomib” for “paclitaxel”, “bortezomib+D-threitol” for “paclitaxel+xylitol”, “1” for “6”
The mice in the group receiving D-threitol and the group receiving bortezomib+D-threitol were orally administered with D-threitol at a dose of 5 mg/kg daily from Day 0.
A cold plate test was performed to examine the effect of D-threitol on paresthesia that is caused by a low temperature stimulus. […]

[3] = 1 mg/kg bortezomib + 5 mg/kg test substance orally daily from Day 0 (prevention)
[4] = 1 mg/kg bortezomib + 100 mg/kg orally daily from Day 6, on Day 12, vs group receiving 1 mg/kg bortezomib

For `OC[C@H](O)[C@H](O)[C@H](O)[C@@H](O)CO` [L-talitol], the avoidance response score [1] was “maintained a score clearly lower than that of the group receiving paclitaxel”, the “withdrawal response time (latent time)” value [2, 3] was “approximately similar to that of the control group” and the “withdrawal response time (latent time)” value [2, 4] was “significantly longer withdrawal response time”.
With `OC[C@@H](O)[C@H](O)CO` [D-threitol] the avoidance response score [1] was “maintained a score clearly lower than that of the group receiving paclitaxel”, the “withdrawal response time (latent time)” value [2, 3] was “approximately similar to that of the control group” and the “withdrawal response time (latent time)” value [2, 4] was “significantly longer withdrawal response time”.
With `OC[C@@H](O)[C@H](O)[C@@H](O)CO` [xylitol] the avoidance response score [1] was “maintained a score clearly lower than that of the group receiving paclitaxel”, the “withdrawal response time (latent time)” value [2, 3] was “approximately similar to that of the control group” and the “withdrawal response time (latent time)” value [2, 4] was “significantly longer withdrawal response time”.

— patent publication US20240099989A1, “AGENT FOR PREVENTING OR IMPROVING PERIPHERAL NEUROPATHY” (KINKI UNIVERSITY, priority 2021, published 2024)
